Values belong to the molecule of their own block, whether it stands above or below them.
Legend:
Assay type in all cases: physicochemical
calf thymus DNA [1] = experiment: UV spectroscopy of spermine or SC2 particles at raised NaCl concentration; conditions: 76 µM DNA bases; for absorption at 330 nm as compared to the maximum optical density at 25 mM NaCl: 65 mM SC2
Method: The characterisation of the formed particles by UV spectroscopy was performed for different reasons. DNA in solution has a characteristic absorption spectrum between 240 and 310 nm. The absorption (optical density) has a maximum at 260 nm and 0 towards 310 nm. A change in DNA conformation should change the profile of the absorption spectrum. Moreover, the formation of particles results in an enhancement of the diffusion which can be perceived in UV by an enhancement of optical density.
Calf thymus DNA was complexed with spermine under conditions optimal for obtaining toroid structures as described by Naroditsky et al. (76 µM DNA bases, 65 mM spermine, 25 mM NaCl).

calf thymus DNA [2] = experiment: Determination of thiol functions of SC2 with Ellman's reagent during DNA complexation; conditions: after 10 min, no oxygen except that in the water
[3] = Determination of the critical micelle concentration (c.m.c.) with a Langmuir balance, without DNA; conditions: for CMC / CMC without DNA: MES buffer 20 mM pH 6 containing 10 mM DTT; for c.m.c.: n-alkyl esters of cysteine by chain length, Langmuir balance, 20 mM MES buffer, pH 6
Method: Clean monomolecular DNA collapse is generally expected only for detergent concentrations below the critical micelle concentration (c.m.c.). Several n-alkyl esters of cysteine were synthesized by DMAP-catalyzed dicyclohexylcarbodiimide (DCC) dehydration and their c.m.c.'s were determined with a Langmuir balance (20 mM MES buffer, pH 6), providing the following results (n-alkyl chain length / c.m.c.): dodecane / 15 µM; undecane / 80 µM; decane / 320 µM; octane /> 2000 µM. Typical working plasmid concentrations for gene delivery experiments being in the 50 µM range, the decane chain is a safe choice. The weakly basic nature of the cysteine ester primary amine function (pKa= 6.8) is insufficient for simultaneous DNA binding (which requires a protonated detergent) and reasonable thiol oxidation rates in slightly basic medium. The amine function was therefore converted into a highly basic guanidine which is known to interact strongly with DNA (C10 -CG+, Fig. 2).
(§1) i) c.m.c. of a detergent with C8, C10, C11 and C12 cysteine Measurement of the c.m.c. was acomplished with a Langmuir balance in a MES buffer (20 mM pH 6) containing 10 mM DTT. When representing the surface tension as a logarithmic function of the detergent concentration a break at the c.m.c. was observed (Fig. 10). Applying this method c.m.c.'s of the compounds having different chain length (C8, C10, C11, C12) were determined.

calf thymus DNA [4] = experiment: Determination of the c.m.c. with a Langmuir balance, buffer containing DNA; conditions: buffer containing calf thymus DNA at 30 µM bp
Method: as §1
ii) c.m.c. of C10 and C11 cysteine with and without DNA. In an analogous manner as above the c.m.c. value of C10 cysteine and C11 cysteine was determined, the buffer containing calf thymus DNA at a concentration of 30 µM bp (Fig. 11A, B).

pCMVluc plasmid DNA = experiment: Oxidation rate of cysteine detergent into cystine lipid (free thiol, Ellman's reagent) with and without template DNA; conditions: 90 µM detergent, TrisHCl 15 mM pH 8.4 saturated with oxygen, with 60 µM plasmid DNA versus without
Method: Oxidative detergent dimerization was expected to be prone to a template effect of DNA (Fig. 1). Fast intra-complex reaction is a key aspect to formation of small and stable particles since extensive detergent dimerization into lipid prior to DNA binding would bring the system back to a classical cationic lipid/DNA complex formation/aggregation process. Enhanced air oxidation rate was indeed observed in the presence of DNA (Fig. 3).
The stock buffer solution (TrisHCl 15 mM pH 8.4) was saturated with oxygen by three vacuum/oxygen atmosphere cycles. C10 -C^G+ was injected from a concentrated stock solution to a final concentration of 90 µM. For each time point, a 0.5 ml aliquot was removed and mixed with 0.5 ml 2XEllman's reagent. The remaining free thiol was quantitated spectrophotometrically according to Riddles et al. (1979 ). For the template experiment, pCMVluc plasmid DNA was added to a final concentration of 60 µM before addition of the detergent.

pCMV-luc plasmid DNA = experiment: Agarose gel electrophoresis: physical and chemical stability of the complexes; conditions: 1% agarose gel, 40 mM Tris-acetate buffer pH 8
Method: In a series of experiments, the reversibility of complex formation as well as the stability of complexed DNA towards degradation were assessed by electrophoresis (Fig. 5). […] Yet the cationic lipid/DNA particles could be destroyed either with excess sodium dodecyl sulfate detergent (SDS, lane 3) or by converting the lipid back to the original C10 -CG+ detergent with excess reducing dithiothreitol (DTT, lane 4). Serum nucleases present in cell culture medium rapidly degrade supercoiled plasmid DNA (lanes 1 and 8) into a smear of fragments with many nicks (lane 5).
1% agarose gel electrophoresis (90 min at 8 V/cm in 40 mM Tris-acetate buffer pH 8) of 20 µl samples containing 0.4 µg (lanes 1-4) or 0.2 µg (lanes 5-8) pCMV-luc plasmid DNA. Complexes were made by addition of a 100-fold concentrated C10 -C^G+ detergent solution (90 µM final concentration) to a solution of plasmid (60 µM) in HEPES buffer (15 mM, pH 7.4). The solution was gently mixed once and left to oxydize for 24 h. Lane 1: 60 µM plasmid DNA. Lane 2: 60 µM oxydized (C10 -C^G+)2/DNA complexes. Lane 3: as lane 2 in 3 mM final sodium dodecylsulfate before loading. Lane 4: as lane 2 in 6 mM dithiothreitol before loading. Lane 5: 60 µM plasmid incubated for 1 h at 37 °C with an equivalent volume of DMEM cell culture medium containing 10% serum. Lane 6: 60p µ M oxydized (C10 -C^G+)2/DNA complexes incubated as lane 5. […]

- absorption at 330 nm as compared to the maximum optical density at 25 mM NaCl (calf thymus DNA [1]; at 100 mM NaCl, raised one and a half hours after mixing): 81%
- absorption at 330 nm as compared to the maximum optical density at 25 mM NaCl (calf thymus DNA [1]; at 150 mM NaCl): 71%
- thiol groups oxydised (calf thymus DNA [2]): 50%
Compound: NC(CS)C(=O)NCCCNCCCCNCCCNC(=O)C(N)CS (stereo not drawn) [SC2, spermine-N1, N12-bis-cysteineamide]

- CMC [3]: > 2000 µM
- c.m.c. [3]: > 2000 µM
Compound: CCCCCCCCOC(=O)[C@@H](N)CS [C8]

- CMC [3]: 80 µM
- CMC without DNA [3]: 80 µM
- c.m.c. [3]: 80 µM
- CMC with DNA (calf thymus DNA [4]): 32 µM
Compound: CCCCCCCCCCCOC(=O)[C@@H](N)CS [C11]

Compound: NCCCNCCCCNCCCN [spermine, reference compound]
- observed UV spectrum after raising NaCl (calf thymus DNA [1]; NaCl raised to 100 mM, 65 mM spermine): identical with the spectrum of the DNA that had been observed before complexation with spermine

- oxydation rate into cystine lipid (pCMVluc plasmid DNA): faster in the presence of template DNA
- DNA migration / stability during electrophoresis (pCMV-luc plasmid DNA): unable to retard DNA migration
Compound: CCCCCCCCCCNC(=O)C(CS)NC(=N)N (stereo not drawn) [C10 -CG+, Guanidyl-cysteine-decylamide]

- CMC [3]: 320 µM
- CMC without DNA [3]: 320 µM
- c.m.c. [3]: 320 µM
- CMC with DNA (calf thymus DNA [4]): 50 µM
Compound: CCCCCCCCCCOC(=O)[C@@H](N)CS [C10]

- CMC [3]: 15 µM
- c.m.c. [3]: 15 µM
Compound: CCCCCCCCCCCCOC(=O)[C@@H](N)CS [C12]

Source: patent publication EP0945138A1, “Transfection particles” (Université Louis Pasteur de Strasbourg, priority 1997, dated 1999)
